The values below are quoted from earlier work in US6696413B2 (Hexal AG, priority 1995, dated 2004).

The conditions of this data set: 16 hours after application of 300 μg of a 5 percent vitamin E solution in ethanol per cm^2.

vitamin E: the “vitamin E found in the horny layer” value was 10.7% and the “vitamin E found in underlying skin layers” value was “about 40.9%”.
